Legend:
Candida albicans = assay: Disk susceptibility testing, Candida albicans; format: cell-based
[1] = tested on: P388 lymphocytic leukemia; format: cell-based, Murine; details: murine P-388 leukemia, 48 hours
[2] = tested on: eight bacteria and two fungi tested; assay: Disk susceptibility testing, whole microbe panel; format: cell-based; details: for Microbe(s) inhibited: at 100 μg/disk, eight bacteria and two fungi
BXPC-3 = format: cell-based, Human; details: BXPC-3, 48 hours
FADU = format: cell-based, Human; details: FADU, 48 hours
Neisseria gonorrhoeae = format: cell-based; details: disk susceptibility; for Minimum inhibitory amount per disk: Neisseria gonorrhoeae
SK-N-SH = format: cell-based, Human; details: SK-N-SH, 48 hours
SK-Mel-3 = format: cell-based, Human; details: SK-Mel-3, 48 hours
NCI-H460 = format: cell-based, Human; details: NCI-H460, 48 hours
SW1736 = format: cell-based, Human; details: SW1736, 48 hours
Cryptococcus neoformans = assay: Disk susceptibility testing, Cryptococcus neoformans; format: cell-based
DU-145 = format: cell-based, Human; details: DU-145, 48 hours
Solubility in water = details: for Solubility: mg per 1 ml water at 25° C.
full-panel NCl screen = details: full-panel NCI screen, previously reported, cited from earlier work

## Piperazine combretastatin A-4 3′-O-phosphate [Compound 5i]
Candida albicans
  Minimum inhibitory concentration: 50–100 μg/disk
[1]
  ED50 P-388: 0.0016 µg/mL
[2]; disk susceptibility, bacteria and fungi tested
  antimicrobial growth inhibition (in words): inhibitory to opportunistic fungi
BXPC-3
  GI50 Pancreas BXPC-3: 0.19 µg/mL
FADU
  GI50 Pharynx FADU: 0.0018 µg/mL
Neisseria gonorrhoeae
  Minimum inhibitory amount per disk: 25–50 μg/disk
SK-N-SH
  GI50 Neuroblast SK-N-SH: 0.021 µg/mL
SK-Mel-3
  GI50 Melanoma SK-Mel-3: 0.0036 µg/mL
NCI-H460
  GI50 Lung-NSC NCI-H460: 0.0028 µg/mL
SW1736
  GI50 Thyroid SW1736: 23.5 µg/mL
Cryptococcus neoformans
  Minimum inhibitory concentration: 25–50 μg/disk
DU-145
  GI50 Prostate DU-145: 0.0011 µg/mL

## Piperidine combretastatin A-4 3′-O-phosphate [Compound 5j]
[1]
  ED50 P-388: 0.0029 µg/mL
[2]
  Microbe(s) inhibited: * (At 100 μg/disk no inhibition of the eight bacteria and two fungi tested.)
BXPC-3
  GI50 Pancreas BXPC-3: 0.30 µg/mL
FADU
  GI50 Pharynx FADU: 0.01 µg/mL
Solubility in water
  Solubility: 5000 µg/mL
SK-N-SH
  GI50 Neuroblast SK-N-SH: 0.017 µg/mL
SK-Mel-3
  GI50 Melanoma SK-Mel-3: 0.01 µg/mL
NCI-H460
  GI50 Lung-NSC NCI-H460: 0.01 µg/mL
SW1736
  GI50 Thyroid SW1736: 0.50 µg/mL
DU-145
  GI50 Prostate DU-145: 0.01 µg/mL

## Pyrazole combretastatin A-4 3-O-phosphate [Compound 5k]
[1]
  ED50 P-388: 0.0023 µg/mL
[2]
  Microbe(s) inhibited: * (At 100 μg/disk no inhibition of the eight bacteria and two fungi tested.)
BXPC-3
  GI50 Pancreas BXPC-3: 0.23 µg/mL
FADU
  GI50 Pharynx FADU: 0.01 µg/mL
SK-N-SH
  GI50 Neuroblast SK-N-SH: 0.014 µg/mL
SK-Mel-3
  GI50 Melanoma SK-Mel-3: 0.01 µg/mL
NCI-H460
  GI50 Lung-NSC NCI-H460: 0.01 µg/mL
SW1736
  GI50 Thyroid SW1736: 4.6 µg/mL
DU-145
  GI50 Prostate DU-145: 0.01 µg/mL

## Pyridine combretastatin A-4 3′-O-phosphate [Compound 5l]
[1]
  ED50 P-388: <0.001 µg/mL
[2]
  Microbe(s) inhibited: * (At 100 μg/disk no inhibition of the eight bacteria and two fungi tested.)
BXPC-3
  GI50 Pancreas BXPC-3: 11.6 µg/mL
FADU
  GI50 Pharynx FADU: 0.032 µg/mL
Solubility in water
  Solubility: 3000 µg/mL
SK-N-SH
  GI50 Neuroblast SK-N-SH: 0.03 µg/mL
SK-Mel-3
  GI50 Melanoma SK-Mel-3: 0.35 µg/mL
NCI-H460
  GI50 Lung-NSC NCI-H460: 0.038 µg/mL
SW1736
  GI50 Thyroid SW1736: 0.01 µg/mL
DU-145
  GI50 Prostate DU-145: 0.036 µg/mL

## Quinidine combretastatin A-4 3-O-phosphate [Compound 5q]
[1]
  ED50 P-388: 0.0032 µg/mL
BXPC-3
  GI50 Pancreas BXPC-3: 0.43 µg/mL
FADU
  GI50 Pharynx FADU: 0.0033 µg/mL
Neisseria gonorrhoeae
  Minimum inhibitory amount per disk: 6.25–12.5 μg/disk
NCI-H460
  GI50 Lung-NSC NCI-H460: 0.0039 µg/mL
SW1736
  GI50 Thyroid SW1736: 0.11 µg/mL
DU-145
  GI50 Prostate DU-145: 0.0036 µg/mL

## Quinine combretastatin A-4 3′-O-phosphate [Compound 5p]
[1]
  ED50 P-388: 0.027 µg/mL
[2]
  Microbe(s) inhibited: * (At 100 μg/disk no inhibition of the eight bacteria and two fungi tested.)
BXPC-3
  GI50 Pancreas BXPC-3: 2.2 µg/mL
FADU
  GI50 Pharynx FADU: 0.006 µg/mL
NCI-H460
  GI50 Lung-NSC NCI-H460: 0.0042 µg/mL
SW1736
  GI50 Thyroid SW1736: 7.5 µg/mL
DU-145
  GI50 Prostate DU-145: 0.0048 µg/mL

## Sodium (E)-combretastatin A-4 3′-O-phosphate [Compound 4c]
[1]
  ED50 P-388: 0.02 µg/mL
BXPC-3
  GI50 Pancreas BXPC-3: 4.0 µg/mL
FADU
  GI50 Pharynx FADU: 0.071 µg/mL
Solubility in water
  Solubility: 4000 µg/mL
Solubility in water; water
  solubility in water (in words): sparingly soluble in water
Neisseria gonorrhoeae
  Minimum inhibitory amount per disk: 50–100 μg/disk
SK-N-SH
  GI50 Neuroblast SK-N-SH: 3.1 µg/mL
SK-Mel-3
  GI50 Melanoma SK-Mel-3: 0.036 µg/mL
NCI-H460
  GI50 Lung-NSC NCI-H460: 0.038 µg/mL
SW1736
  GI50 Thyroid SW1736: 11.2 µg/mL
DU-145
  GI50 Prostate DU-145: 0.044 µg/mL

## Sodium (Z)-combretastatin A-4 3′-O-phosphate [Compound 3d]
[1]
  ED50 P-388: 0.00292 µg/mL
full-panel NCl screen
  Pearson correlation coefficient, TGI-COMPARE differential cytotoxicity profile versus combretastatin A-4 1a: 0.91
full-panel NCl screen; read-out: mean panel GI50 concentration, quadruplicate, three concentration ranges
  GI50: 6.89 nM
BXPC-3
  GI50 Pancreas BXPC-3: 0.23 µg/mL
FADU
  GI50 Pharynx FADU: 0.0045 µg/mL
Solubility in water
  Solubility: 20000 µg/mL
Neisseria gonorrhoeae
  Minimum inhibitory amount per disk: 50–100 μg/disk
  growth inhibition of Neisseria gonorrhoeae (in words): inhibited growth
SK-N-SH
  GI50 Neuroblast SK-N-SH: 0.0025 µg/mL
NCI-H460
  GI50 Lung-NSC NCI-H460: 0.0035 µg/mL
SW1736
  GI50 Thyroid SW1736: 0.0061 µg/mL
DU-145
  GI50 Prostate DU-145: 0.0072 µg/mL

## Zinc combretastatin A-4 3′-O-phosphate [Compound 5f]
[1]
  ED50 P-388: 0.0343 µg/mL
[2]
  Microbe(s) inhibited: * (At 100 μg/disk no inhibition of the eight bacteria and two fungi tested.)
BXPC-3
  GI50 Pancreas BXPC-3: 1.1 µg/mL
FADU
  GI50 Pharynx FADU: 0.0070 µg/mL
Solubility in water
  Solubility: 11000 µg/mL
SK-N-SH
  GI50 Neuroblast SK-N-SH: 0.024 µg/mL
SK-Mel-3
  GI50 Melanoma SK-Mel-3: 1.0 µg/mL
NCI-H460
  GI50 Lung-NSC NCI-H460: 0.0074 µg/mL
SW1736
  GI50 Thyroid SW1736: 0.059 µg/mL
DU-145
  GI50 Prostate DU-145: 0.0062 µg/mL

Reference: US7018987B1 (priority 1998, dated 2006)
